According to paper PMC7613639, “Broad-spectrum chemicals block ROS detoxification to prevent plant fungal invasion” (Current biology : CB, 2022):

Target: BcRtt109-GST (Botrytis cinerea, UniProt A0A384J919)
Test: in vitro acetylation of BcTol1-His6, immunoblot with anti-K122ac
Format: biochemical
Details: 0.2 mM acetyl-CoA; acceptor BcTol1-His6; 50 mM Tris-HCl pH 8.0, 37 °C, 1 h

Sequence of BcRtt109-GST (A0A384J919 entry or part of it): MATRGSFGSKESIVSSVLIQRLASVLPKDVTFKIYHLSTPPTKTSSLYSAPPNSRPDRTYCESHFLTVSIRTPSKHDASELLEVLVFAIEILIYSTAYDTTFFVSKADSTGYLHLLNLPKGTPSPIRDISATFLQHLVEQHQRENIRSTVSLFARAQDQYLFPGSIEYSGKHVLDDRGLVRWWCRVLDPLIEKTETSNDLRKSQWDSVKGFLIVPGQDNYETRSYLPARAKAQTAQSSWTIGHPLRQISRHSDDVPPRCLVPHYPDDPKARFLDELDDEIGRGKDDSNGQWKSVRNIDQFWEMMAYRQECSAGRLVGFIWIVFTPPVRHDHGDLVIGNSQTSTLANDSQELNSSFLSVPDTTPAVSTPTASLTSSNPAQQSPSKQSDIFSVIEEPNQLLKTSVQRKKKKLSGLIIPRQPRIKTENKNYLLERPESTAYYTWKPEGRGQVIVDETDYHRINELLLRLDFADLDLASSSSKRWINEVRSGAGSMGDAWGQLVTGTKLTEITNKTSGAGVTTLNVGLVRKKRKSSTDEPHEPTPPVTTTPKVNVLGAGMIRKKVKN

## CC(=O)SCCNC(=O)CCNC(=O)[C@H](O)C(C)(C)COP(=O)(O)OP(=O)(O)OC[C@H]1O[C@@H](n2cnc3c(N)ncnc32)[C@H](O)[C@@H]1OP(=O)(O)O [acetyl-CoA]
  in vitro acetylation of BcTol1-His6, immunoblot with anti-K122ac: purified BcRtt109-GST, but not GST itself, acetylates WT BcTol1 effectively in vitro
